# Test results reported in patent US7179926B2, “Aryloxyalkylamine NK-1/SSRI inhibitors” (Bristol-Myers Squibb Company, priority 2004, dated 2007).
# pIC50: −log10 of the molar value.
# Legend:
# [1] = target: T1, neurokinin-1 (NK-1) receptor (Homo sapiens, UniProt P25103); experiment: NK-1 Binding assay ([125I] Substance P competition, U373 cell membranes); conditions: Bolton Hunter labeled [125I] Substance P, 30 min at 20° C.
# T1 construct: endogenously expresses the neurokinin-1 (NK-1) receptor; endogenous in cells; host or cells: U373 human glioblastoma-astrocytoma cells (membranes)
# T1 sequence (P25103 whole entry): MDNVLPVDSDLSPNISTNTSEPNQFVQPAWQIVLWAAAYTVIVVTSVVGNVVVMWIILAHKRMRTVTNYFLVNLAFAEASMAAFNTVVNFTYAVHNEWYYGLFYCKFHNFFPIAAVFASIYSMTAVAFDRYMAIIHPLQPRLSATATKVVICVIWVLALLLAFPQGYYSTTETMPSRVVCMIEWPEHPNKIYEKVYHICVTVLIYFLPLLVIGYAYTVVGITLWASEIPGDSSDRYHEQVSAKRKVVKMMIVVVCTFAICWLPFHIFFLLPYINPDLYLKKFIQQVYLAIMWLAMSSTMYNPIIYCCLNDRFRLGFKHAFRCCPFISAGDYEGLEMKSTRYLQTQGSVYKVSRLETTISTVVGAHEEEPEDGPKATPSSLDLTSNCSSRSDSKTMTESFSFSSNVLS
# Protocol: NK-1 Binding assay. U373 cells, a human glioblastoma-astrocytoma cell line that endogenously expresses the neurokinin-1 (NK-1) receptor, were grown in a monolayer culture at 37° C. in 5% CO2 and fed with Minimum Essential Medium (MEM) supplemented with 10% fetal bovine serum. Membranes were prepared as follows: Cells were washed twice with ice-cold phosphate-buffered saline (pH 7.4) and then incubated for 5–10 minutes with ice-cold 10 mM Tris buffer (pH 7.4) containing 5 mM EDTA. Cells were removed from plates, homogenized, and centrifuged at 32,000×g for 20 minutes. The resulting supernatant was discarded, and the pellet resuspended by homogenization in 50 mM Tris buffer (pH 7.4) containing 1 mM EDTA and centrifuged at 32,000×g for 20 minutes. The resulting supernatant was discarded, and the pellet resuspended by homogenization in NK-1 binding assay buffer (50 mM Tris-HCL (pH 7.4), 3 mM MnCl2, 200 μg/ml BSA, 5 μg/ml chymostatin, 40 μg/ml bacitracin and 4 μg/ml leupeptin).
# On the day of an experiment the membrane preparation was thawed, homogenized and diluted with NK-1 binding assay buffer to the appropriate concentration. Competition binding assays were performed in 96 well plate format by incubating membranes (5–10 μg/well) with Bolton Hunter labeled [^125I] Substance P, at a concentration of […], and concentrations of drugs ranging from 10000 to 0.01 nM. Samples were incubated for 30 min at 20° C. then filtered through GF/B glass fiber filters (pretreated with 1% polyethyleneimine and 0.3% Triton X-100) using a Brandel cell harvester. The filters were then washed with 10 ml ice cold 50 mM Tris-HCL (pH 7.4) containing 3 mM MgCl2. Non-specific was defined in the presence of 2 μM L-733,060 (a non-peptide NK-1 antagonist). The amount of radioligand bound in the presence and absence of competitor was analyzed by plotting (−)log drug concentration versus the amount of radioligand specifically bound. The midpoint of the displacement curve (IC50, nM), signifies the potency. Ki values can be calculated using the method of Cheng and Prusoff (Cheng and Prusoff, Biochemical Pharmacology, Vol 22, pp. 3099–3108, Pergamon Press (1973)).
# [2] = target: T2, human serotonin transporters (Homo sapiens, UniProt P31645); experiment: Serotonin transporter binding assay ([3H]-citalopram competition, HEK-hSERT cell membranes); conditions: 1 nM [3H]-citalopram, 1 hr at 25° C., read-out: SERT IC50
# T2 construct: expressed in transfected cells
# T2 sequence (P31645 whole entry): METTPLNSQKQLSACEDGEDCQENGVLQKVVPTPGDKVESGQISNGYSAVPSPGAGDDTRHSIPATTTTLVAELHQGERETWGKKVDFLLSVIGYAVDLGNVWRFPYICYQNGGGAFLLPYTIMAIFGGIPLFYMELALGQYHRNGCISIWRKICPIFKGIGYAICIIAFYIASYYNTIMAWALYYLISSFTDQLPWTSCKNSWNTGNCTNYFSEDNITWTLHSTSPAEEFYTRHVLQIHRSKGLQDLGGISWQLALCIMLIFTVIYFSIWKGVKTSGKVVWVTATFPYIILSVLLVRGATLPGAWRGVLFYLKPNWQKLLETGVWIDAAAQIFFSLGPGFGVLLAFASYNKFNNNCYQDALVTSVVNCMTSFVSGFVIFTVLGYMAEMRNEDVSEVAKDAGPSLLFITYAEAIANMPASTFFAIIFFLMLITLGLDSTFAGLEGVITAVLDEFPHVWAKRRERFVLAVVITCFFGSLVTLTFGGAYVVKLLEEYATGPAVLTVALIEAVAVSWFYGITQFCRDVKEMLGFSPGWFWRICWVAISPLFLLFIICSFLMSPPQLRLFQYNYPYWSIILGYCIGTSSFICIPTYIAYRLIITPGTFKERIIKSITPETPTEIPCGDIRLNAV
# Protocol: Serotonin transporter binding assay. HEK-293 cells that stably express human serotonin transporters (HEK-hSERT cells) were grown at 37° C. in 5% CO2 as a monolayer in medium consisting of EMEM supplemented with 10% fetal bovine serum and G418 sulfate (500 μg/ml). To prepare membranes for radioligand binding experiments, cells were rinsed twice with phosphate-buffered saline (138 mM NaCl, 4.1 mM KCl, 5.1 mM Na2PO4, 1.5 mM KH2PO4, 11.1 mM glucose, pH 7.4). Cells were transferred from plates to polypropylene tubes (16×100 mm), centrifuged at 1,200×g for 5 min and were frozen at −80° C. until assay. Following centrifugation, pellets were resuspended by homogenization in buffer consisting of 50 mM Tris (pH 7.7 at 25° C.), 120 mM NaCl and 5 mM KCl and then centrifuged at 32,000×g for 10 min. Following centrifugation, supernatants were discarded and pellets were resuspended in buffer consisting of 50 mM Tris (pH 7.4 at 25° C.), 150 mM NaCl and 5 mM KCl. Membrane homogenates (200 μl/plate) were incubated with 1 nM [^3H]-citalopram (specific activity=85 Ci/mmol) and increasing concentrations of test compounds for 1 hr at 25° C. in a total volume of 250 μl. The assay buffer consisted of 50 mM Tris (pH 7.4 at 25° C.), 120 mM NaCl and 5 mM KCl (pH 7.4 with conc. HCl). Plates were incubated for 1 hr at 25° C., then filtered through 0.5% PEI treated Whatman GF/B filters using a Brandel cell harvester. Filters were washed three times with 3 ml of ice-cold tris wash buffer. Non-specific binding was defined with 10 μM fluoxetine. Amount of radioligand bound in the presence and absence of competitor was analyzed by plotting (−)log drug concentration versus the amount of radioligand specifically bound. The midpoint of the displacement curve (IC50, nM), signifies the potency. Ki values can be calculated using the method of Cheng and Prusoff (Cheng and Prusoff, Biochemical Pharmacology, Vol 22, pp. 3099–3108, Pergamon Press (1973)).
pIC50 [1],pIC50 [2],Compound
7.00 to 9.00,7.00 to 9.00,"Cc1cccc(C(O)(CCN)COCc2cc(C(F)(F)F)cc(C(F)(F)F)c2)c1 (centres unmarked) [Example 17, 1-(3,5-bis(trifluoromethyl)benzyloxy)-4-amino-2-m-tolylbutan-2-ol]"
< 6.52,7.00 to 9.00,"COc1ccc(C(O)(CCN)COCc2cc(C(F)(F)F)cc(C(F)(F)F)c2)c(OC)c1 (centres unmarked) [Example 46, 1-(3,5-bis(trifluoromethyl)benzyloxy)-4-amino-2-(2,4-dimethoxyphenyl)butan-2-ol]"
7.00 to 9.00,7.00 to 9.00,"Cc1cc(C)cc(COCC(O)(CCN)c2ccccc2)c1 (centres unmarked) [Example 53, 1-(3,5-dimethylbenzyloxy)-4-amino-2-phenylbutan-2-ol]"
7.00 to 9.00,7.00 to 9.00,"NCCC(O)(COCc1cc(F)cc(C(F)(F)F)c1)c1ccccc1 (centres unmarked) [Example 51, 1-(3-fluoro-5-(trifluoromethyl)benzyloxy)-4-amino-2-phenylbutan-2-ol]"
7.00 to 9.00,7.00 to 9.00,"Cc1ccc(F)cc1C(O)(CCN)COCc1cc(C(F)(F)F)cc(C(F)(F)F)c1 (centres unmarked) [Example 29, 1-(3,5-bis(trifluoromethyl)benzyloxy)-4-amino-2-(5-fluoro-2-methylphenyl)butan-2-ol]"
7.00 to 9.00,6.52 to 7.00,"NCCC(O)(COCc1cc(C(F)(F)F)cc(C(F)(F)F)c1)c1cc(F)cc(Cl)c1 (centres unmarked) [Example 24, 1-(3,5-bis(trifluoromethyl)benzyloxy)-4-amino-2-(3-chloro-5-fluorophenyl)butan-2-ol]"
7.00 to 9.00,7.00 to 9.00,"Cc1cc(F)ccc1C(O)(CCN)COCc1cc(C(F)(F)F)cc(C(F)(F)F)c1 (centres unmarked) [Example 31, 1-(3,5-bis(trifluoromethyl)benzyloxy)-4-amino-2-(4-fluoro-2-methylphenyl)butan-2-ol]"
6.52 to 7.00,7.00 to 9.00,"COc1ccc(OC)c(C(O)(CCN)COCc2cc(C(F)(F)F)cc(C(F)(F)F)c2)c1 (centres unmarked) [Example 27, 1-(3,5-bis(trifluoromethyl)benzyloxy)-4-amino-2-(2,5-dimethoxyphenyl)butan-2-ol]"
7.00 to 9.00,7.00 to 9.00,"Cc1ccc(C)c(C(O)(CCN)COCc2cc(C(F)(F)F)cc(C(F)(F)F)c2)c1 (centres unmarked) [Example 37, 1-(3,5-bis(trifluoromethyl)benzyloxy)-4-amino-2-(2,5-dimethylphenyl)butan-2-ol]"
6.52 to 7.00,7.00 to 9.00,"NCCC(O)(COCc1cc(F)cc(F)c1)c1ccccc1 (centres unmarked) [Example 64, 1-(3,5-difluorobenzyloxy)-4-amino-2-phenylbutan-2-ol]"
7.00 to 9.00,6.52 to 7.00,"CN(C)CC(O)(COCc1cc(C(F)(F)F)cc(C(F)(F)F)c1)c1ccccc1 (centres unmarked) [Example 1, 1-(3,5-bis(trifluoromethyl)benzyloxy)-3-(dimethylamino)-2-phenylpropan-2-ol]"
7.00 to 9.00,7.00 to 9.00,"NCCC(O)(COCc1cc(C(F)(F)F)cc(C(F)(F)F)c1)c1ccc(F)cc1 (centres unmarked) [Example 41, 1-(3,5-bis(trifluoromethyl)benzyloxy)-4-amino-2-(4-fluorophenyl)butan-2-ol]"
7.00 to 9.00,6.52 to 7.00,"COc1ccc(F)cc1C(O)(CCN)COCc1cc(C(F)(F)F)cc(C(F)(F)F)c1 (centres unmarked) [Example 25, 1-(3,5-bis(trifluoromethyl)benzyloxy)-4-amino-2-(5-fluoro-2-methoxyphenyl)butan-2-ol]"
6.52 to 7.00,6.52 to 7.00,"CNCC(C)(COCc1cc(C(F)(F)F)cc(C(F)(F)F)c1)c1ccccc1 (centres unmarked) [Example 78, 1-(3,5-bis(trifluoromethyl)benzyloxy)-3-methylamino-2-methyl-2-phenylpropane]"
< 6.52,6.52 to 7.00,"Cc1ccccc1COCC(O)(CCN)c1ccccc1 (centres unmarked) [Example 67, 1-(2-methylbenzyloxy)-4-amino-2-phenylbutan-2-ol]"
< 6.52,7.00 to 9.00,"COc1ccccc1COCC(O)(CCN)c1ccccc1 (centres unmarked) [Example 62, 1-(2-methoxybenzyloxy)-4-amino-2-phenylbutan-2-ol]"
7.00 to 9.00,7.00 to 9.00,"COc1ccc(C(O)(CCN)COCc2cc(C(F)(F)F)cc(C(F)(F)F)c2)cc1F (centres unmarked) [Example 23, 1-(3,5-bis(trifluoromethyl)benzyloxy)-4-amino-2-(3-fluoro-4-methoxyphenyl)butan-2-ol]"
7.00 to 9.00,7.00 to 9.00,"Cc1c(F)cccc1C(O)(CCN)COCc1cc(C(F)(F)F)cc(C(F)(F)F)c1 (centres unmarked) [Example 36, 1-(3,5-bis(trifluoromethyl)benzyloxy)-4-amino-2-(3-fluoro-2-methylphenyl)butan-2-ol]"
7.00 to 9.00,7.00 to 9.00,"NCC(O)(COCc1cc(C(F)(F)F)cc(C(F)(F)F)c1)c1ccccc1 (centres unmarked) [Example 2, 1-(3,5-bis(trifluoromethyl)benzyloxy)-3-amino-2-phenylpropan-2-ol]"
< 6.52,7.00 to 9.00,"NCCC(O)(COCc1cccc(Br)c1)c1ccccc1 (centres unmarked) [Example 48, 1-(3-bromobenzyloxy)-4-amino-2-phenylbutan-2-ol]"
< 6.52,< 6.52,"NCCC(O)(COCc1ccccc1F)c1ccccc1 (centres unmarked) [Example 57, 1-(2-fluorobenzyloxy)-4-amino-2-phenylbutan-2-ol]"
6.52 to 7.00,7.00 to 9.00,"COc1ccc(C(O)(CCN)COCc2cc(C(F)(F)F)cc(C(F)(F)F)c2)cc1OC (centres unmarked) [Example 39, 1-(3,5-bis(trifluoromethyl)benzyloxy)-4-amino-2-(3,4-dimethoxyphenyl)butan-2-ol]"
